ChEMBL document CHEMBL1697781, “Assessment of the health effects of chemicals in humans: II. Construction of an adverse effects database for QSAR modeling” (Curr Drug Discov Technol, 2004)

Tests used:
Details in all cases: human; call rule not given here
[1] = test system: Hepatotoxicity; experiment: FDA HLAED, liver enzyme composite activity
[2] = test system: Hepatotoxicity; experiment: FDA HLAED, alkaline phosphatase increase
[3] = test system: Hepatotoxicity; experiment: FDA HLAED, serum glutamic oxaloacetic transaminase (SGOT) increase
[4] = test system: Hepatotoxicity; experiment: FDA HLAED, serum glutamic pyruvic transaminase (SGPT) increase
[5] = test system: Hepatotoxicity; experiment: FDA HLAED, lactate dehydrogenase (LDH) increase
[6] = test system: Hepatotoxicity; experiment: FDA HLAED, gamma-glutamyl transferase (GGT) increase
For GGT Increase - Index Value in this document: reference of the scale not given here.
For LDH Increase - Index Value in this document: reference of the scale not given here.

Structure (SMILES) | Composite Activity - Active [1] | Composite Activity - Marginal [1] | Composite Activity - Score [1] | Alkaline Phosphatase Increase - Activity Score [2] | Alkaline Phosphatase Increase - Index Value [2] | Alkaline Phosphatase Increase - Number of Reports [2] | SGOT Increase - Activity Score [3] | SGOT Increase - Index Value [3] | SGOT Increase - Number of Reports [3] | SGPT Increase - Activity Score [4] | SGPT Increase - Index Value [4] | SGPT Increase - Number of Reports [4] | LDH Increase - Activity Score [5] | LDH Increase - Index Value [5] | LDH Increase - Number of Reports [5] | GGT Increase - Activity Score [6] | GGT Increase - Index Value [6] | GGT Increase - Number of Reports [6]
CC(CCc1ccc(O)cc1)NCCc1ccc(O)c(O)c1 (stereo unspecified) [DOBUTAMINE] | 0 | 0 | Inactive | Inactive | 0 | < 4 | Inactive | 0 | < 4 | Inactive | 0 | < 4 | Inactive | 0 | < 4 | Inactive | 0 | < 4
CC(=O)O[C@@]12CO[C@@H]1C[C@H](O)[C@@]1(C)C(=O)[C@H](O)C3=C(C)[C@@H](OC(=O)[C@H](O)[C@@H](NC(=O)OC(C)(C)C)c4ccccc4)C[C@@](O)([C@@H](OC(=O)c4ccccc4)[C@H]21)C3(C)C.O.O.O [DOCETAXEL] | 0 | 0 | Inactive | Inactive |  | < 4 | Inactive |  | < 4 | Inactive |  | < 4 | Inactive |  | < 4 | Inactive |  | < 4
CCN[C@H]1C[C@H](C)S(=O)(=O)c2sc(S(N)(=O)=O)cc21 [DORZOLAMIDE] | 0 | 0 | Inactive | Inactive | 0 | < 4 | Inactive | 0.2 | < 4 | Inactive | 0.1 | < 4 | Inactive | 0.1 | < 4 | Inactive | 0 | < 4
COc1cc(CC2c3c(cc(OC)c(OC)c3OC)CC[N+]2(C)CCCOC(=O)CCC(=O)OCCC[N+]2(C)CCc3cc(OC)c(OC)c(OC)c3C2Cc2cc(OC)c(OC)c(OC)c2)cc(OC)c1OC.[Cl-].[Cl-] (stereo unspecified) [DOXACURIUM CHLORIDE] | 0 | 0 | Inactive | Inactive | 0 | < 4 | Inactive | 0 | < 4 | Inactive | 0 | < 4 | Inactive | 0 | < 4 | Inactive | 0 | < 4
COc1cc2nc(N3CCN(C(=O)C4COc5ccccc5O4)CC3)nc(N)c2cc1OC (stereo unspecified) [DOXAZOSIN] | 0 | 0 | Inactive | Inactive | 0.2 | < 4 | Inactive | 0.3 | < 4 | Inactive | 0.5 | >= 4 | Inactive | 0.2 | < 4 | Inactive | 0.2 | < 4
CCCCCc1cc(O)c2c(c1)OC(C)(C)[C@@H]1CCC(C)=C[C@@H]21 [DRONABINOL] | 0 | 0 | Inactive | Inactive | 0 | < 4 | Inactive | 0 | < 4 | Inactive | 0 | < 4 | Inactive | 0 | < 4 | Inactive | 0 | < 4
Clc1ccc(COC(Cn2ccnc2)c2ccc(Cl)cc2Cl)cc1 (stereo unspecified) [ECONAZOLE] | 0 | 0 | Inactive | Inactive | 0 | < 4 | Inactive | 0 | < 4 | Inactive | 0 | < 4 | Inactive | 0 | < 4 | Inactive | 0 | < 4
